Earlier results on one molecule are cited in US20110200683A1, “Hydrogen peroxide solution producing first aid substance, packaging, and treatment” (Piper Medical, Inc, priority 2010, published 2011).

The conditions of data set [1]: temperatures above 50° C.
For data set [2] the following is noted: in water.

Turning to `NC(N)=O.OO` [percarbamide], in data set [1], the stability result was “relatively stable”. Further, the “solubility sufficient to create a hydrogen peroxide concentration” value in data set [2] is listed as no less than 3%.
